# Test results: patent US20220048987A1, “METHOD OF TREATMENT TO PREVENT OR REVERSE AGE-ASSOCIATED INFLAMMATION, COGNITIVE DECLINE, AND NEURODEGENERATION” (The Board of Trustees of the Leland Stanford Junior …, priority 2020, published 2022)
# Columns and labels:
# Type in all cases: cell-based
# [1] = tested on: mouse peritoneal macrophages; assay: OCR and ECAR (Seahorse) in mouse peritoneal macrophages; conditions: aged (18-20 mo) mouse peritoneal macrophages, 100 nM, 20 h
# Method: Cells were plated at 1.8×10^6 cells per well in a Seahorse XF24 Cell Culture Microplate (Agilent). Cells were then treated with indicated inhibitors or agonists in each experiment for 20 h. Cells were washed twice with Agilent Seahorse XF Media (Agilent) supplemented with 1 mM pyruvate, 2 mM L-glutamine, and 10 mM D-glucose; a final volume of 525 μl was placed in each well. Cells were then incubated in a 0% CO2 chamber at 37° C. for 1 h before being placed into a Seahorse XFe24 Analyzer (Agilent). For OCR and ECAR mitostress test experiments, cells were treated with 1 μM oligomycin, 2 μM carbonyl cyanide p-trifluoromethoxyphenylhydrazone (FCCP), and 0.5 μM rotenone/antimycin (indicated by three black arrows in each seahorse trace). For mitoFlex Fuel test experiments, cells were treated with UK5099 (200 μM) and BPTES (200 μM)/Etomoxir (80 μM). A total of three OCR and pH measurements were taken after each compound was administered. All Seahorse experiments were repeated at least three times unless otherwise indicated. All OCR and ECAR data were normalized to cell number per well using CyQUANT (ThermoFisher Scientific, Waltham, Mass., USA). […]
# Cd11bCre, and WT mice. Mice were injected intraperitoneally with 1.5 ml 3% (w/v) thioglycolate medium (BD Biosciences), and primary macrophages were isolated 3-4 days later by flushing with ice-cold 1×PBS buffer (Corning). […]
# mouse astrocytes = assay: OCR and ECAR (Seahorse) in mouse astrocytes; conditions: primary mouse astrocytes, 100 nM, 20 h
# Method: (§1) Cells were plated at 1.8×10^6 cells per well in a Seahorse XF24 Cell Culture Microplate (Agilent). Cells were then treated with indicated inhibitors or agonists in each experiment for 20 h. Cells were washed twice with Agilent Seahorse XF Media (Agilent) supplemented with 1 mM pyruvate, 2 mM L-glutamine, and 10 mM D-glucose; a final volume of 525 μl was placed in each well. Cells were then incubated in a 0% CO2 chamber at 37° C. for 1 h before being placed into a Seahorse XFe24 Analyzer (Agilent). For OCR and ECAR mitostress test experiments, cells were treated with 1 μM oligomycin, 2 μM carbonyl cyanide p-trifluoromethoxyphenylhydrazone (FCCP), and 0.5 μM rotenone/antimycin (indicated by three black arrows in each seahorse trace). For mitoFlex Fuel test experiments, cells were treated with UK5099 (200 μM) and BPTES (200 μM)/Etomoxir (80 μM). A total of three OCR and pH measurements were taken after each compound was administered. All Seahorse experiments were repeated at least three times unless otherwise indicated. All OCR and ECAR data were normalized to cell number per well using CyQUANT (ThermoFisher Scientific, Waltham, Mass., USA).
# Primary astrocyte cultures were prepared from cerebral cortices of postnatal day 1-2 C57BL/6J mice. […]
# [2] = tested on: human monocyte-derived macrophages (human MDMs); assay: Real-time oxygen consumption rate (OCR) and ECAR (Seahorse) in human MDMs; conditions: 20 h
# Method: as §1
# Peripheral blood mononuclear cells from de-identified healthy donors (young<35 years old, aged>65 years old) were obtained from the Stanford Blood Center and transferred to 50 ml conical tubes. Samples were diluted with 20 ml PBS and layered onto 10 ml of Ficoll-Paque (GE Healthcare) using a Pasteur pipette. Tubes were centrifuged at 1,500 r.p.m. for 25 min without brake at 20° C. The mononuclear cell layer was transferred to a new 50 ml conical tube, resuspended in 50 ml 1×PBS and centrifuged at 1500 r.p.m. for 10 min, repeated twice. After centrifugation, monocytes were isolated using a Monocyte Isolation Kit, human (MACS; Miltenyi Biotech). Cells were then plated 10×10^6 per 10-cm petri dish and differentiated for 7 days in Roswell Park Memorial Institute (RPMI) media supplemented with 10% FBS, 1% penicillin-streptomycin, and 50 ng ml^−1 M-CSF (Peprotech).
# [3] = tested on: mouse hippocampal neurons; assay: OCR and ECAR (Seahorse) in mouse hippocampal neurons; conditions: primary mouse hippocampal neurons, 100 nM, 20 h
# Method: as §1
# Hippocampi were dissected from embryonic Day 17.5 mice embryos, dissociated using trypsin (2 mg/ml) and DNase I (0.6 mg/ml), and plated at a density of 100, 000 cells per well in Seahorse XF24 culture plate coated with poly-L-lysine. […]
# human MDMs = assay: Chemokine and cytokine multiplex assay, supernatant of human MDMs; conditions: aged (>65 yo) human MDMs, stimulated 8 h later
# Method: Hippocampal lysates or mouse plasma were stored at −80° C. and cytokine analysis was carried out at the Human Immune Monitoring Core (Stanford University) or Eve Technologies (Calgary, Alberta, Canada) using Luminex mouse 39-plex kits and Human 71-plex kits. Plates were read using a Luminex LabMap200 instrument or a MSD Chemiluminescence instrument with a lower bound of 100 beads per sample per measured cytokine. Each sample was tested in triplicate. Mean fluorescence intensity (MFI) was averaged over duplicate wells for each cytokine per sample on each plate. All were transcardially perfused prior to isolation of hippocampi and other brain tissue.
# Peripheral blood mononuclear cells from de-identified healthy donors (young<35 years old, aged>65 years old) were obtained from the Stanford Blood Center and transferred to 50 ml conical tubes. […]
# Plasmid-containing human GYS1 shRNA (Table 3) or Scr (2 μg) (HuSH shRNA shGYS1 Lenti Cloning Vector [pGFP-C-shLenti]) were incubated with a mixture of nucleofection solution and P4 primary cell supplement (82 μl:18 μl nucleofection solution:supplement) and placed in nucleofection cuvettes. […] Cells were then plated in 10-cm plates and incubated 37° C. under 5% CO2 for 8 h before GYS1 protein expression was analyzed by quantitative immunoblotting.
smiles,measurement,setting,value
NS(=O)(=O)c1ccc(-n2nc(C(F)(F)F)cc2-c2ccc(Cl)cc2)cc1 [SC236],basal respiration and ECAR,[1],partially phenocopies EP2 receptor antagonism
"CCCCC[C@H](O)/C=C/[C@H]1[C@H](O)CC(=O)[C@@H]1C/C=C\CCCC(=O)O [PGE2, prostaglandin E2]",OCR and ECAR,mouse astrocytes,no significant effects
same,"ECAR (extracellular acidification rate, glycolysis)","[2]; human MDMs, dose response",decreased glycolysis
same,basal OCR (oxygen consumption),"[2]; human MDMs, dose response",suppressed oxygen consumption
same,OCR and ECAR,[3],no significant effects
CCCC1([C@H](O)C/C=C/[C@H]2[C@H](O)CC(=O)[C@@H]2CCCCCCC(=O)OC)CCC1 [butaprost],OCR and ECAR,mouse astrocytes,no significant effects
same,immune phenotypes (immune factors in supernatant) of aged human MDMs + GYS1 shRNA,human MDMs,refractory to further EP2 receptor activation
same,OCR in GYS1-deficient aged human MDMs,"[2]; aged (>65 yo) human MDMs nucleofected with shGYS1, 100 nM, 8 h post nucleofection",refractory to treatment
same,bioenergetic or immune factor phenotypes of aged human MDMs lacking GYS1,"[2]; aged human MDMs + GYS1 shRNA, 100 nM",did not alter
same,OCR and ECAR,[3],no significant effects
